Laboratory results as given in the CheMixHub viscosity set.

Assay: xn = mol fraction of the nth substance listed

O=[N+]([O-])[O-].[Na+] + O
viscosity [mPa·s]
Settings	293.15 K	298.15 K	303.15 K	308.15 K	313.15 K	318.15 K
101 kPa, x1 = 0.0371	–	–	–	–	0.78	–
101 kPa, x1 = 0.0564	–	1.19	–	–	0.89	–
101 kPa, x1 = 0.0768	–	1.3	–	–	1.02	–
101 kPa, x1 = 0.0978	–	1.63	–	–	1.2	–
101 kPa, x1 = 0.12	–	1.92	–	–	1.41	–
101.1 kPa, x1 = 0.0001893	1.003	0.892	0.799	0.721	0.654	0.598
101.1 kPa, x1 = 0.0007456	1.004	0.893	0.8	0.722	0.655	0.6
101.1 kPa, x1 = 0.0018	1.007	0.895	0.803	0.725	0.658	0.602
101.1 kPa, x1 = 0.007199	1.02	0.909	0.817	0.738	0.662	0.608
101.1 kPa, x1 = 0.01603	1.032	0.923	0.83	0.75	0.676	0.618
101.1 kPa, x1 = 0.0211	1.052	0.934	0.836	0.754	0.682	0.623
101.3 kPa, x1 = 0.0009	1.005	0.8932	0.8005	0.7222	–	0.5989
101.3 kPa, x1 = 0.0018	1.007	0.8955	0.8028	0.7247	–	0.6018
101.3 kPa, x1 = 0.00893	1.025	0.915	0.8225	0.7446	–	0.6207
101.3 kPa, x1 = 0.0177	1.058	0.9465	0.853	0.7732	–	0.6476
101.3 kPa, x1 = 0.03478	1.15	1.032	0.9323	0.8482	–	0.7131
101.3 kPa, x1 = 0.05127	1.275	1.144	1.034	0.9397	–	0.7913
101.3 kPa, x1 = 0.06722	1.418	1.271	1.148	1.043	–	0.8782
101.3 kPa, x1 = 0.09755	1.796	1.604	1.444	1.309	–	1.097
101.3 kPa, x1 = 0.126	2.231	1.983	1.778	1.606	–	1.338
101.33 kPa, x1 = 0.000905	–	–	–	0.7324	0.6609	–
101.33 kPa, x1 = 0.002718	–	–	–	0.7422	0.6695	–
101.33 kPa, x1 = 0.00453	–	–	–	0.7525	0.6763	–
101.33 kPa, x1 = 0.006344	–	–	–	0.7606	0.6855	–
101.33 kPa, x1 = 0.008159	–	–	–	0.7705	0.6992	–
101.33 kPa, x2 = 0.84	3.04	–	–	–	–	–
101.33 kPa, x2 = 0.86	2.507	–	–	–	–	–
101.33 kPa, x2 = 0.88	2.15	–	–	–	–	–
101.33 kPa, x2 = 0.89	2.088	–	–	–	–	–
101.33 kPa, x2 = 0.91	1.752	–	–	–	–	–
101.33 kPa, x2 = 0.92	1.502	–	–	–	–	–
101.33 kPa, x2 = 0.94	1.384	–	–	–	–	–
